# Patent US20050153872A1, “Methods and compositions for the treatment of infection” (priority 2004, published 2005)
# Where two headings read alike, the source gives them in different places.
# B1: Ph-EF: Colicin Ia linked to the N-terminus of the E. facaelis pheromone cCF10 (protein)
# chain: SDPVARGITNPGAESLGYDSDGHEIMAVASPIYVASNPPRVASPVFHGTPPAWSSFGNKTIWGGNEWVASPDSPTRSDIEKRDKEITAYKNTLSAQQKENENKRTEAGKRLSAAIAAREKDENTLKTLRAGNADAADITRQEFRLLQAELREYGFRTEIAGYDALRLHTESRMLFADADSLRISPREARSLIEQAEKRQKDAQNADKKAADMLAEYERRKGILDTRLSELEKNGGAALAVLDAQQARLLGQQTRNDRAISEARNKLSSVTESLNTARNALTRAEQQLTQQKNTPDGKTIVSPEKFPGRSSTNHSIVVSGDPRFAGTIKITTSAVIDNRANLNYLLSHSGLDYKRNILNDRNPVVTEDVEGDKKIYNAEVALAEWDKLRQRLLDARNKITSAESAVASNSARNNLSARTNEQKHANDALNALLKEKENIRNQLSGINQKIAEEKRKQDELKATKDAINFTTEFLKSVSEKYGAKAEQLAREMAGQAKGKKIRNVEEALKTYEKYRADINKKINAKDRAAIAAALESVKLSDISSNLNRFSRGLGYAGKFTSLADWITEFGKAVARGTENWRPLFVKTETIIAGNAATALVALALVFSILTGSALGIIGYGLLMAVTGALIDESLVEKANKFWGILVTLVFV
# modifications: Colicin Ia linked to E. facaelis pheromone cCF10
# Key:
# [1] = tested on: Vancomycin-resistant Enterococcus ATCC 700802; settings: for inhibition of VRE cell growth: 10 ug/ml, ATCC 700802
# ATCC 700802 VRE cells [2] = assay: Ph-EF protection of ATCC 700802 infected mice; type: in vivo; settings: for Death distribution in hours 24 h / Death distribution in hours 48 h / Death distribution in hours 72 h / Death distribution in hours 96 h / Death distribution in hours 120 h / Death distribution in hours 144 h / Death distribution in hours 168 h / Number of Death: 5 animals
# Description: To assess in vivo effects of Ph-EF, mice were injected with a fatal dosage of ATCC 700802 VRE cells intraperitoneally. […] Mice were inspected every 24 hours for 7-14 days. Dead mice would be counted as positive results.
# ATCC 700802 VRE cells [3] = assay: Electron micrographs of bactericidal effects of Ph-EF; type: cell-based, Enterococcus; settings: Ph-EF 10 ug/ml 0.5 and 2 hr; Ph-SA 10 ug/ml 2 hr; vancomycin 20 ug/ml 2 hr
# Description: Electron Microraphs of Bactericidal Effects of Ph-EF Against ATCC 700802 VRE Cells (1% Phosphotungstic Acid, 15.000×).
# Bactericidal effects of ph-EF were tested and monitored by electron microscopy. FIG. 16 depicts electron micrographs of (a) untreated cells; (b) and (c) cells treated with Ph-EF (10 ug/ml) for 0.5 hr; (d) untreated cells for 2 hr; (e) cells treated by Ph-SA (10 ug/ml) for 2 hr; (f) cells treated with vancomycin (20 ug/ml) for 2 hr; (g) and (h) cells treated with Ph-EF (10 ug/ml) for 2 hrs.
# [4] = tested on: Enterococcus faecalis ATCC 700802; assay: microbe, parasite or virus in culture; type: cell-based; settings: ATCC700802; Enterococcus faecalis ATCC 700802; read-out: MIC
# [5] = tested on: Staphylococcus aureus MSSA strain (88); assay: In vitro antibacterial activity (MIC), clinical isolates; type: cell-based; settings: Staphylococcus aureus, 88 MSSA clinical isolates
# Description: (§1) The following experiments were performed by Lab. of Pharmacology, National Sichuan antibiotic industril institute, Chengdu, Sichuan.
# (§2) The following agents were used to test the in vitro activity of Ph-SA:
# (§3) All the bacterial strains used in the experiments were clinical isolates collected from Sichuan and Beijing in 2002 and identified by West China Hospital, Sichuan University and Chongqing University of Medical Sciences with API system. The following strains were used in the experiments detailed below: Staphylococcus aureus 168 strains (MRSA 80 strains and MSSA 88 strains) Staphylococcus epidermidis 46 strains (MRSE 25 strains and MSSE 21 strains), Enterococcus 20 strains, and Acenetobactor 20 strains. Staphylococcus aureus ATCC25923, 29213 and BAA-42 were used as control strains. Bacterial strains were contacted with one of the above described compounds and MIC50, MIC90 and MICScope were determined.
# [6] = tested on: Staphylococcus epidermidis MSSE strain (21); assay: as above; type: cell-based; settings: Staphylococcus epidermidis, 21 MSSE clinical isolates
# Description: as §1, §2, §3
# Acenetobactor (20) = assay: as above; type: cell-based
# Description: as §1, §2, §3
# [7] = tested on: Staphylococcus aureus MRSA strain (80); assay: as above; type: cell-based; settings: Staphylococcus aureus, MRSA
# Description: as §1, §2, §3
# [8] = tested on: Staphylococcus epidermidis MRSE strain (25); assay: as above; type: cell-based; settings: Staphylococcus epidermidis, MRSE
# Description: as §1, §2, §3
# Enterococcus (20) = assay: as above; type: cell-based; settings: 20 Enterococcus clinical isolates
# Description: as §1, §2, §3
# Escherichia coli 02-1-65 [9] = assay: MIC against challenge strain (Table 3); type: cell-based; settings: 02165, read-out: MIC
# [10] = tested on: Staphylococcus aureus MRSA BAA-42; assay: microbe, parasite or virus in culture; type: cell-based; settings: Staphylococcus aureus MRSA BAA-42; read-out: MIC
# [11] = tested on: Staphylococcus aureus MRSA BAA-42; assay: In vivo protection of infected mice; set-up: species or system Kungming mice; settings: Staphylococcus aureus
# Description: (§4) The following experiments were performed by Pharmacology Lab, National Sichuan antibiotic industril institute, Chengdu, Sichuan.
# (§5) The agents described above were diluted with sterilized water to final concentrations of 10 mg/L, 5 mg/Land 2.5 mg/L.
# (§6) Staphylococcus aureus ATCC BAA-42(MRSA) and enterococcus faecalis ATCC 700802 were used as control strains.
# (§7) 170 mice (Kungming mice: 18˜22 g, 85 males and 85 females) were randomly divided into four groups and injected with a fatal dosage of staphylococci, enterococcus and E. coli intraperitoneally. […] Mice were inspected every 24 hours for 7-14 days. Dead mice were counted as positive results. The results are depicted in Table 3 and FIGS. 4 and 5A-B.
# [12] = tested on: Enterococcus faecalis ATCC 700802; assay: In vivo protection of infected mice; set-up: species or system Kungming mice; settings: Enterococcus faecalis
# Description: as §4, §5, §6, §7
# [13] = tested on: Staphylococcus aureus MRSA 02-18; assay: In vivo protection of infected mice; set-up: species or system Kungming mice; settings: Staphylococcus aureus, MRSA
# Description: as §4, §5, §6, §7
# [14] = tested on: Staphylococcus aureus MRSA 02-18; assay: microbe, parasite or virus in culture; type: cell-based; settings: Staphylococcus aureus MRSA 02-18; read-out: MIC
# [15] = tested on: Staphylococcus aureus ATCC 29213; assay: MIC against challenge strain (Table 3); type: cell-based; settings: ATCC29213, read-out: MIC
# [16] = tested on: Staphylococcus aureus ATCC 29213; assay: In vivo protection of infected mice; set-up: species or system Kungming mice; settings: Staphylococcus aureus, i.p. infection 3.6 × 10^5 cfu/ml, read-out: ED50
# Description: as §4
# (§8) The agents described above were diluted with sterilized water to final concentrations of 10 mg/L, 5 mg/Land 2.5 mg/L. […]
# as §7
# Escherichia coli 02-1-65 [17] = assay: In vivo protection of infected mice; set-up: species or system Kungming mice; settings: i.p. infection 3.3 × 10^5 cfu/ml, read-out: ED50
# Description: as §4, §8, §7
# [18] = tested on: vancomycin-sensitive Enterococcus ATCC29212; settings: 3 ug/ml; ATCC 29212 cells
molecule,measurement,setting,value
CN[C@H](CC(C)C)C(=O)N[C@H]1C(=O)N[C@@H](CC(N)=O)C(=O)N[C@H]2C(=O)N[C@H]3C(=O)N[C@H](C(=O)N[C@H](C(=O)O)c4cc(O)cc(O)c4-c4cc3ccc4O)[C@H](O)c3ccc(c(Cl)c3)Oc3cc2cc(c3O[C@@H]2O[C@H](CO)[C@@H](O)[C@H](O)[C@H]2O[C@H]2C[C@](C)(N)[C@H](O)[C@H](C)O2)Oc2ccc(cc2Cl)[C@H]1O [Vancomycin],inhibition of VRE cell growth,[1],only partially inhibited VRE cell growth
same,Death distribution in hours 24 h,ATCC 700802 VRE cells [2]; 5 mg/kg intravenously,3
same,Death distribution in hours 48 h,ATCC 700802 VRE cells [2]; 5 mg/kg intravenously,2
same,Death distribution in hours 72 h,ATCC 700802 VRE cells [2]; 5 mg/kg intravenously,1
same,Death distribution in hours 96 h,ATCC 700802 VRE cells [2]; 5 mg/kg intravenously,0
same,Death distribution in hours 120 h,ATCC 700802 VRE cells [2]; 5 mg/kg intravenously,0
same,Death distribution in hours 144 h,ATCC 700802 VRE cells [2]; 5 mg/kg intravenously,0
same,Death distribution in hours 168 h,ATCC 700802 VRE cells [2]; 5 mg/kg intravenously,0
same,Number of Death,ATCC 700802 VRE cells [2]; 5 mg/kg intravenously,3
same,Death distribution in hours 24 h,ATCC 700802 VRE cells [2]; 10 mg/kg intravenously,1
same,Death distribution in hours 48 h,ATCC 700802 VRE cells [2]; 10 mg/kg intravenously,1
same,Death distribution in hours 72 h,ATCC 700802 VRE cells [2]; 10 mg/kg intravenously,0
same,Death distribution in hours 96 h,ATCC 700802 VRE cells [2]; 10 mg/kg intravenously,0
same,Death distribution in hours 120 h,ATCC 700802 VRE cells [2]; 10 mg/kg intravenously,0
same,Death distribution in hours 144 h,ATCC 700802 VRE cells [2]; 10 mg/kg intravenously,0
same,Death distribution in hours 168 h,ATCC 700802 VRE cells [2]; 10 mg/kg intravenously,0
same,Number of Death,ATCC 700802 VRE cells [2]; 10 mg/kg intravenously,1
same,morphological alteration in VRE cells (electron micrographs),ATCC 700802 VRE cells [3],no morphological alteration
same,MIC,[4],16 µg/mL
same,MIC50,[5]; read-out: MIC50,0.5 µg/mL
same,MIC90,[5]; read-out: MIC90,1 µg/mL
same,MIC,[5]; read-out: MIC Scope,0.03 to 1 µg/mL
same,MIC,[6],0.06 to 0.5 µg/mL
same,MIC50,[6]; read-out: MIC50,0.5 µg/mL
same,MIC90,[6]; read-out: MIC90,0.5 µg/mL
same,MIC50,Acenetobactor (20),> 128 µg/mL
same,MIC90,Acenetobactor (20),> 128 µg/mL
same,MIC50,[7],0.25 µg/mL
same,MIC90,[7],1 µg/mL
same,MIC,[7]; read-out: MIC Scope,0.004 to 2 µg/mL
same,MIC50,[8],0.5 µg/mL
same,MIC90,[8],1 µg/mL
same,MIC,[8]; read-out: MIC Scope,0.25 to 2 µg/mL
same,MIC,Enterococcus (20),0.5 to 50 µg/mL
same,MIC50,Enterococcus (20); read-out: MIC50,1 µg/mL
same,MIC90,Enterococcus (20); read-out: MIC90,2 µg/mL
same,MIC,Escherichia coli 02-1-65 [9],128 µg/mL
same,MIC,[10],0.06 µg/mL
same,ED50,[11],3.53 mg/kg
same,ED50,[11]; 1 h,3.64 mg/kg
same,ED50,[12]; ATCC700802,2.64 mg/kg
same,ED50,"[12]; ATCC700802, 1 h",3.17 mg/kg
same,ED50,[13],2.39 mg/kg
same,ED50,[13]; 1 h,2.27 mg/kg
same,MIC,[14],0.06 µg/mL
same,MIC,[15],0.5 µg/mL
same,ED50,"[16]; ATCC29213, 2nd Time (value in parentheses), i.v. treatment",2.09 mg/kg
same,ED50,"[16]; ATCC29213, 1 h, 1st Time, i.v. treatment after one hour",2.32 mg/kg
same,ED50,"Escherichia coli 02-1-65 [17]; Escherichia coli, 02165, 2nd Time (value in parentheses), i.v. treatment",> 30.8 mg/kg
same,ED50,"Escherichia coli 02-1-65 [17]; Escherichia coli, 02165, 1 h, 1st Time, i.v. treatment after one hour",> 30.8 mg/kg
B1,inhibition of VRE cell growth,[1],effectively inhibited VRE cell growth
same,bactericidal effect relative to vancomycin on a molar basis,"[1]; Ph-EF 70,000 daltons vs vancomycin 1456 daltons",almost one hundred times greater
same,inhibition of cell growth,[18],inhibited cell growth
same,Death distribution in hours 24 h,ATCC 700802 VRE cells [2]; 5 mg/kg intravenously,0
same,Death distribution in hours 48 h,ATCC 700802 VRE cells [2]; 5 mg/kg intravenously,1
same,Death distribution in hours 72 h,ATCC 700802 VRE cells [2]; 5 mg/kg intravenously,0
same,Death distribution in hours 96 h,ATCC 700802 VRE cells [2]; 5 mg/kg intravenously,0
same,Death distribution in hours 120 h,ATCC 700802 VRE cells [2]; 5 mg/kg intravenously,0
same,Death distribution in hours 144 h,ATCC 700802 VRE cells [2]; 5 mg/kg intravenously,0
same,Death distribution in hours 168 h,ATCC 700802 VRE cells [2]; 5 mg/kg intravenously,0
same,Number of Death,ATCC 700802 VRE cells [2]; 5 mg/kg intravenously,1
same,Death distribution in hours 24 h,ATCC 700802 VRE cells [2]; 10 mg/kg intravenously,0
same,Death distribution in hours 48 h,ATCC 700802 VRE cells [2]; 10 mg/kg intravenously,0
same,Death distribution in hours 72 h,ATCC 700802 VRE cells [2]; 10 mg/kg intravenously,0
same,Death distribution in hours 96 h,ATCC 700802 VRE cells [2]; 10 mg/kg intravenously,0
same,Death distribution in hours 120 h,ATCC 700802 VRE cells [2]; 10 mg/kg intravenously,0
same,Death distribution in hours 144 h,ATCC 700802 VRE cells [2]; 10 mg/kg intravenously,0
same,Death distribution in hours 168 h,ATCC 700802 VRE cells [2]; 10 mg/kg intravenously,0
same,Number of Death,ATCC 700802 VRE cells [2]; 10 mg/kg intravenously,0
same,protection against infection in mice,"ATCC 700802 VRE cells [2]; ATCC 700802 VRE i.p., agent i.v.",effectively prevent Enterococcus infection in mice
same,morphological alteration in VRE cells (electron micrographs),ATCC 700802 VRE cells [3],substantial morphological alteration
